Each compound was assayed on Aβ42 production (assay: Quantitation of Aβ peptide in neuronal cell culture derived from a rat fetal brain (Aβ ELISA)). Settings: rat primary neuronal cell culture (cerebral cortex, 18-day embryos); medium recovered 3 days after adding the compound; Aβx-42 ELISA; test concentration not given.
Format: cell-based
Excerpt: Quantitation of Aβ Peptide in Neuronal Cell Culture Derived from a Rat Fetal Brain.
The cerebral cortex was isolated from 18-day embryos of Wister rats (Charles River Japan, Yokohama, Japan) and cultured. More specifically, under ether anesthesia, embryos were aseptically resected from pregnant rats. The brains were resected from the embryos and placed in an ice cold L-15 medium (Invitrogen Corp. Cat. #11415-064, Carlsbad, Calif., USA or SIGMA L15181 and the like). From the resected brains, the cerebral cortex was collected under a stereoscopic microscope. The collected pieces of the cerebral cortex were treated in an enzyme solution containing 0.25% trypsin (Invitrogen Corp. Cat. #15050-065, Carlsbad, Calif. USA) and 0.01% DNase (Sigma D5025, St. Louis, Mo., USA) at 37° C. for 30 minutes to disperse cells. Then, the enzyme reaction was stopped by adding inactivated horse serum. The resultant enzyme treatment solution was centrifuged at 1500 rpm for 5 minutes to remove the supernatant. A medium (5-10 ml) was added to the obtained cell aggregates. The medium used was Neurobasal medium (Invitrogen Corp. Cat. #21103-049, Carlsbad, Calif., USA) added with 2% B27 supplement (Invitrogen Corp. Cat #17504-044, Carlsbad, Calif. USA), 25 μM 2-mercaptoethanol (2-ME, WAKO Cat. #139-06861, Osaka, Japan), 0.5 mM L-glutamine (Invitrogen Corp. Cat. #25030-081, Carlsbad, Calif., USA) and Antibiotics-Antimycotics (Invitrogen Corp. Cat. #15240-062, Carlsbad, Calif., USA) (Neurobasal/B27/2-ME). However, a media without 2-ME (Neurobasal/B27) was used when an assay was carried out. The cell aggregates mixed with the medium were pipetted gently to re-disperse the cells. The resultant cell dispersion was filtered through a 40 μm nylon mesh (cell strainer, Cat. #. 35-2340, Becton Dickinson Labware, Franklin Lakes, N.J., USA) to obtain a neuronal cell suspension by removing cell aggregates. The resultant neuronal cell suspension was diluted with the medium and seeded into poly-L or D-lysine coated 96 well polystyrene culture vessels (Falcon Cat. #. 35-3075, Becton Dickinson Labware, Franklin Lakes, N.J., USA, coated with poly-L-lysine by a following method or BIOCOAT™πcell environments Poly-D-lysine cell ware 96-well plate, Cat. #. 35-6461, Becton Dickinson Labware, Franklin Lakes, N.J., USA) at 100 μL/well so that the initial cell density was 5×10^5 cells/cm^2. The poly-L-lysine coating was carried out as follows. Using 0.15 M Borate buffer (SIGMA P2636, St. Louis, Mo., USA) solution was aseptically prepared. The resultant solution was added to 96 well polystyrene culture vessels at […] and incubated at room temperature for 1 hour or longer or at 4° C. overnight or longer. Then the coated 96 well polystyrene culture vessels were washed with sterilized water 4 times or more, dried or rinsed with sterilized PBS or the medium and used for seeding the cells. After culturing the seeded cells were incubated at 37° C. in an incubator under a 5% CO2-95% air for 1 day, the whole medium was replaced with fresh Neurobasal/B27/2-ME medium, and the incubation was continued for 3 days.
At day 4 of culturing, drugs were added as follows. The whole medium was withdrawn and Neurobasal medium containing 2% B-27 but no 2-ME (Neurobasal/B27) was added to the well at 180 μL/well. A dimethylsulfoxide (hereinafter abbreviated as DMSO) solution of a test compound was diluted with Neurobasal/B27 to a 10 times concentration of the final concentration. The resultant diluted solution was added to the well at 20 μL/well and mixed well. The final DMSO concentration was to be 1% or less. Only DMSO was added to the control group.
After culturing 3 days after adding the compound, the whole medium was recovered. The medium thus obtained was used as ELISA samples. For Aβx-42 measurement, no dilution was made but for Aβx-40 measurement, samples were diluted 5 folds with the diluent attached to the ELISA kit to be subjected to the ELISA tests. […]
In the case of `COc1cc(/C=C2\O[C@@H](C)[C@H]3COC[C@@H](c4cc(F)c(F)c(F)c4)N3C2=O)ccc1-n1cnc(C)c1` [Example 2, (Z)-(1S,6R,9aR)-3-[3-methoxy-4-(4-methylimidazol-1-yl)benzylidene]-1-methyl-6-(3,4,5-trifluorophenyl)tetrahydro-[1,4]oxazino[3,4-c][1,4]oxazin-4-one], the “Aβ42 production reducing activity” value is reported as 52 % of CTRL.
`COc1cc(/C=C2\OC(C)(C)[C@H]3CC[C@@H](c4ccc(Cl)cc4)N3C2=O)ccc1-n1cnc(C)c1` [Example 8, (Z)-(6S,8aR)-6-(4-chlorophenyl)-3-[3-methoxy-4-(4-methylimidazol-1-yl)benzylidene]-1,1-dimethyltetrahydropyrrolo[2,1-c][1,4]oxazin-4-one] was tested, and the “Aβ42 production reducing activity” value was 74 % of CTRL.
In the case of `COc1cc(/C=C2\O[C@@H](C)[C@H]3CC[C@@H](c4ccc(Cl)cc4)N3C2=O)ccc1-n1cnc(C)c1` [Example 9, (Z)-(1S,6S,8aR)-6-(4-chlorophenyl)-3-[3-methoxy-4-(4-methylimidazol-1-yl)benzylidene]-1-methyltetrahydropyrrolo[2,1-c][1,4]oxazin-4-one], the “Aβ42 production reducing activity” value is reported as 95 % of CTRL.
For `COc1cc(/C=C2\OC(C)(C)[C@H]3CC[C@@H](c4cc(F)c(F)c(F)c4)N3C2=O)ccc1-n1cnc(C)c1` [Example 11, (Z)-(6S,8aR)-3-[3-methoxy-4-(4-methylimidazol-1-yl)benzylidene]-1,1-dimethyl-6-(3,4,5-trifluorophenyl)tetrahydropyrrolo[2,1-c][1,4]oxazine-4 one], the “Aβ42 production reducing activity” value was 67 % of CTRL.
`COc1cc(/C=C2\O[C@@H](C)[C@H]3CC[C@@H](c4cc(F)c(F)c(F)c4)N3C2=O)ccc1-n1cnc(C)c1` [Example 12, (Z)-(1S,6S,8aR)-3-[3-Methoxy-4-(4-methylimidazol-1-yl)benzylidene]-1-methyl-6-(3,4,5-trifluorophenyl)tetrahydropyrrolo[2,1-c][1,4]oxazin-4-one] was tested, and the “Aβ42 production reducing activity” value was 91 % of CTRL.
`COc1cc(/C=C2\O[C@@H](C)[C@H]3CCC[C@@H](c4cc(F)c(F)c(F)c4)N3C2=O)ccc1-n1cnc(C)c1` [Example 17, (Z)-(1S,6S,9aR)-3-[3-methoxy-4-(4-methylimidazol-1-yl)benzylidene]-1-methyl-6-(3,4,5-trifluorophenyl)hexahydropyrido[2,1-c][1,4]oxazin-4-one] was tested, and the “Aβ42 production reducing activity” value was 53 % of CTRL.
`COc1cc(/C=C2\OC(C)(C)[C@H]3COC[C@@H](c4cc(F)c(F)c(F)c4)N3C2=O)ccc1-n1cnc(C)c1` [Example 19] was tested, and the “Aβ42 production reducing activity” value was 42 % of CTRL.

Reference: patent US20080207900A1, “TWO CYCLIC OXOMORPHORIN DERIVATIVES” (priority 2007, published 2008)
